Data as given in PMC5698552 (mBio, 2017).

How the values were obtained:
[1] = target: T1, UDP-galactopyranose mutase (BcUGM) (Botrytis cinerea, UniProt A0A384JG93); assay: enzyme kinetics with purified recombinant BcUGM, varying UDP-Galp, HPLC-UV and LC-MS product detection; format: biochemical
T1 construct: gene BCIN_05g00580

[2] = target: T1, UDP-galactopyranose mutase (BcUGM); assay: product of purified recombinant BcUGM detected by HILIC and LC-MS/MS; format: biochemical

T1 sequence (A0A384JG93 entry or part of it): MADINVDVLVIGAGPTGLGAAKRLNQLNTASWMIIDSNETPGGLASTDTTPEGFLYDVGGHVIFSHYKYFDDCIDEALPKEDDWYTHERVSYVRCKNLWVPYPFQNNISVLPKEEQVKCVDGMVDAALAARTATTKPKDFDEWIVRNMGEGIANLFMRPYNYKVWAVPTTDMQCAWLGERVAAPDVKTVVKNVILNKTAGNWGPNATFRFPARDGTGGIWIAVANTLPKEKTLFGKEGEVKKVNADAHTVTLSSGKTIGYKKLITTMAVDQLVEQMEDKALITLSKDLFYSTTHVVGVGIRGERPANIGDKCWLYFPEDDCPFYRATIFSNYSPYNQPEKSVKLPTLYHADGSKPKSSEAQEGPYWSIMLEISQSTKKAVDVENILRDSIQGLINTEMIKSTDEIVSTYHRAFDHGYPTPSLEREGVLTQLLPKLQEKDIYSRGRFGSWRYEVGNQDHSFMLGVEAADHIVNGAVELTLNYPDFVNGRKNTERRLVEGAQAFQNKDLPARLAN

C[C@H]1O[C@H](OP(=O)(O)OP(=O)(O)OC[C@H]2O[C@@H](n3ccc(=O)[nH]c3=O)[C@H](O)[C@@H]2O)[C@H](O)[C@@H](O)C1=O [UDP-KDG]
Ki [1]: 222 µM

O=c1ccn([C@@H]2O[C@H](COP(=O)(O)OP(=O)(O)O[C@H]3O[C@@H]([C@H](O)CO)[C@H](O)[C@H]3O)[C@@H](O)[C@H]2O)c(=O)[nH]1 [UDP-galactofuranose]
product of purified recombinant BcUGM detected by HILIC and LC-MS/MS [2]: transforming UDP-galactopyranose to UDP-galactofuranose in the presence of NADPH and flavin adenine dinucleotide (FAD)
